Measurements taken from patent US12234236B1, “GLP-1R agonist and therapeutic method thereof” (Ascletis Pharma (China) Co., Limited, priority 2023, dated 2025).

Tests used:
[1] = target: T1, hGLP-1R (Homo sapiens, UniProt P43220); assay: hGLP-1R agonist cAMP stimulation assay; format: cell-based; details: Flp-In-293-GLP1R cells, 30 minutes at 37° C.
T1 construct: expressed in transfected cells; host or cells: Flp-In-293 (HEK293-derived) cells carrying GLP1R
Protocol: 1. Cell Line and Reagent Preparation
• 1) Cell line: Flp-In-293-GLP1R • 2) Medium: DMEM+10% FBS+1×Penicillin-Streptomycin+200 μg/mL HB • 3) Test buffer: 1×HBSS+20 mM HEPES+0.1% BSA+500 μM IBMX 2. Agonist Test • a) Flpin-293-GLP1R cells were incubated in a 384-well assay plate (6007680-50, PB) using a complete medium with 2,000 cells per well. • b) Prepared a 4× […] working solution with assay buffer. • c) Added 5 μL of 4× Compound Working Solution to the cell plate and incubated at 37° C. for 30 minutes. • d) Diluted the Eu-cAMP tracer (1/50) with lysis buffer and added 10 μl/well to the assay plate. • e) Diluted Ulight-anti-cAMP (1/150) with lysis buffer and added 10 μl/well to the assay plate. • f) The assay plate was incubated at constant temperature for 1 hour. • g) Read the plate on Envision 2105 plate reader at […]. 3.

[2] = Single-dose subcutaneous injection pharmacokinetic study in SD rats; format: in vivo; details: Sprague-Dawley, rat, blood, sc, male SD rats, 30 mg/kg, vehicle 80% MCT + 20% benzyl alcohol, read-out: AUC0-696h
Protocol: Pharmacokinetic Studies in Sprague-Dawley (SD) Rats
1. Single-Dose Subcutaneous Injection Pharmacokinetic Studies Sprague-Dawley (SD) Rats
Pharmacokinetic (PK) studies after a single-dose subcutaneous injection for compounds: 1, 13, 18, 19, 20, 21 and orforglipron. Protocol: Animals: Male Sprague-Dawley (SD) rats; Vehicle: 80% MCT (Medium-Chain Triglycerides)+20% benzyl alcohol; Dose: 30 mg/kg in the vehicle; Dosing concentration: 30 mg/mL; Dosing volume: 1 mL/kg; Administration site: Subcutaneous injection at the back of the animal. Blood sampling time points: pre-dose, 1 h, 2 h, 8 h, 24 h, 48 h, 72 h, 96 h, 120 h, 144 h, 216 h, 312 h, 480 h, 696 h. Blood samples were collected, and the blood samples were analyzed by LC-MS/MS.

[3] = Single-dose oral administration pharmacokinetic study in SD rats; format: in vivo; details: Sprague-Dawley, rat, whole blood, 5 mg/kg; for AUC(0-t): read-out: AUC0-48h
Protocol: 2. Single-Dose Oral Administration Pharmacokinetic (PK) Studies in Sprague-Dawley (SD) Rats
Pharmacokinetic (PK) studies after a single-dose oral administration for compounds. Protocol: Animals: Sprague-Dawley (SD) rats; Solvent: Solutol: PEG400: Tween80: Saline=10:40:2:48 (v/v/v/v); Dose: 5 mg/kg; Dosing concentration: 0.5 mg/mL in the solvent; Dosing volume: 10 mL/kg; Blood sampling time points: pre-dose, 0.25 h, 0.5 h, 1 h, 2 h, 3 h, 4 h, 8 h, 12 h, 18, 24 h, 32 h, 40 h, 48 h. Sample Collection: At each time point, approximately 0.15 mL of blood was drawn from the jugular vein sinus, and the collected whole blood was placed in an anticoagulant tube containing EDTA-K2. After collecting blood samples, they were processed with protein precipitation and then analyzed by LC-MS/MS.

T1 sequence (P43220 24-463): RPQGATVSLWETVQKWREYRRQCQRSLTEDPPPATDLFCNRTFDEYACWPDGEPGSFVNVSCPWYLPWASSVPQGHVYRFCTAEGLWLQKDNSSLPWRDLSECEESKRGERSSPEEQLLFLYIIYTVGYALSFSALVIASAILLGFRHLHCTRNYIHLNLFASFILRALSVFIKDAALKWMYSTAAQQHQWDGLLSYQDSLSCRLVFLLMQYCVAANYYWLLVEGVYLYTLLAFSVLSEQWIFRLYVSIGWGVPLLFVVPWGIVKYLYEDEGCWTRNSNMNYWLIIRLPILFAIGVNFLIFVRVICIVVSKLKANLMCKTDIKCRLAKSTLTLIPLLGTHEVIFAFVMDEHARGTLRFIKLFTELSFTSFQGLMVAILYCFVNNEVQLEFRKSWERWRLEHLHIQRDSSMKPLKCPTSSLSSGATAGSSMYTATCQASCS

SMILES	EC50 [1] [nM]	AUC(0-t) [2] [ng·h/mL]	Cmax [3] [ng/mL]	AUC(0-t) [3] [ng·h/mL]
Cc1cc(-n2nc3c(c2-n2ccn(-c4ccc(NS(C)(=O)=O)cc4)c2=O)C2CCC(C3)N2C(=O)c2cc3nc(C4CCOCC4)ccc3n2[C@@]2(c3noc(=O)[nH]3)C[C@@H]2C)cc(C)c1F (stereo partly drawn) [Compound 24]	0.868	–	–	–
Cc1cc(-n2nc3c(c2-n2ccn(-c4ccc5c(cnn5C5CC5)c4F)c2=O)[C@H](C)N(C(=O)c2cc4cc([C@H]5CCOC(C)(C)C5)ccc4n2[C@@]2(c4noc(=O)[nH]4)C[C@@H]2C)CC3)cc(C)c1F [Compound 1]	0.094	60300	–	–
Cc1cc(-n2nc3c(c2-n2ccn(-c4ccc5c(cnn5C5CC5)c4F)c2=O)[C@H](C)N(C(=O)c2cc4cc(C5CCOCC5)cnc4n2[C@@]2(c4noc(=O)[nH]4)C[C@@H]2C)CC3)cc(C)c1F [Compound 70]	0.064	–	–	–
Cc1cc(-n2nc3c(c2-n2ccn(-c4ccc5c(c4)NCCS5(=O)=O)c2=O)[C@H](C)N(C(=O)c2cc4cc(C5CCOCC5)ccc4n2[C@@]2(c4noc(=O)[nH]4)C[C@@H]2C)CC3)cc(C)c1F [Compound 55]	0.15	–	–	–
Cc1cc(-n2nc3c(c2-n2ccn(-c4ccc5c(c4F)COB5O)c2=O)[C@H](C)N(C(=O)c2cc4cc(C5CCOCC5)ccc4n2[C@@]2(c4noc(=O)[nH]4)C[C@@H]2C)CC3)cc(C)c1F [Compound 79]	0.171	–	–	–
CCOP(=O)(Cc1ccc(-n2ccn(-c3c4c(nn3-c3cc(C)c(F)c(C)c3)CCN(C(=O)c3cc5cc(C6CCOCC6)ccc5n3[C@@]3(c5noc(=O)[nH]5)C[C@@H]3C)[C@H]4C)c2=O)cc1)OCC [Compound 84]	0.08	–	–	–
Cc1cc(-n2nc3c(c2-n2ccn(-c4ccc5c(cnn5C)c4F)c2=O)[C@H](C)N(C(=O)c2cc4cc([C@H]5CCOC(C)(C)C5)ccc4n2[C@@]2(c4noc(=O)[nH]4)C[C@@H]2C)CC3)cc(C)c1F [Orforglipron, orforglipron, reference compound]	–	5390	799	7220
Cc1cc(-n2nc3c(c2-n2ccn(-c4ccc5c(cnn5CC5CC5)c4F)c2=O)[C@H](C)N(C(=O)c2cc4cc(C5CCOC(C)(C)C5)ccc4n2[C@@]2(c4noc(=O)[nH]4)C[C@@H]2C)CC3)cc(C)c1F (stereo partly drawn) [Compound 13]	0.228	23400	–	–
Cc1cc(-n2nc3c(c2-n2ccn(-c4ccc5c(cnn5C5CC5)c4F)c2=O)[C@H](C)N(C(=O)c2cc4nc(C5CCOCC5)ccc4n2[C@@]2(c4noc(=O)[nH]4)C[C@@H]2C)CC3)cc(C)c1F [Compound 65]	0.092	–	11000	71800
Cc1cc(-n2nc3c(c2-n2ccn(-c4ccc5c(cnn5CC5CC5)c4F)c2=O)[C@H](C)N(C(=O)c2cc4cc([C@@H]5CCOC(C)(C)C5)ccc4n2[C@@]2(c4noc(=O)[nH]4)C[C@@H]2C)CC3)cc(C)c1F [Compound 18]	0.265	51200	–	–

More lines, in order of falling EC50 [1], values ahead:

EC50 [1] [nM]	AUC(0-t) [2] [ng·h/mL]	Cmax [3] [ng/mL]	AUC(0-t) [3] [ng·h/mL]	SMILES
0.063	–	–	–	Cc1cc(-n2nc3c(c2-n2ccn(-c4ccc5c(c4F)COB5O)c2=O)[C@H](C)N(C(=O)c2cc4cc(C5CCOC(C)(C)C5)ccc4n2[C@@]2(c4noc(=O)[nH]4)C[C@@H]2C)CC3)cc(C)c1F (stereo partly drawn) [Compound 29]
0.06	–	–	–	Cc1cc(-n2nc3c(c2-n2ccn(-c4ccc5c(c4F)CS(=O)(=O)N5)c2=O)[C@H](C)N(C(=O)c2cc4cc(C5CCOCC5)ccc4n2[C@@]2(c4noc(=O)[nH]4)C[C@@H]2C)CC3)cc(C)c1F [Compound 37]
0.05	–	–	–	Cc1cc(-n2nc3c(c2-n2ccn(-c4ccc5c(c4F)CCS(=O)(=O)N5)c2=O)[C@H](C)N(C(=O)c2cc4cc(C5CCOCC5)ccc4n2[C@@]2(c4noc(=O)[nH]4)C[C@@H]2C)CC3)cc(C)c1F [Compound 36]
0.044	61500	–	–	Cc1cc(-n2nc3c(c2-n2ccn(-c4ccc5c(cnn5CC5CC5)c4F)c2=O)[C@H](C)N(C(=O)c2cc4cc(C5CCOCC5)ccc4n2[C@@]2(c4noc(=O)[nH]4)C[C@@H]2C)CC3)cc(C)c1F [Compound 21]
0.042	–	–	–	Cc1cc(-n2nc3c(c2-n2ccn(-c4ccc(CP(=O)(C5CC5)C5CC5)cc4)c2=O)[C@H](C)N(C(=O)c2cc4cc(C5CCOCC5)ccc4n2[C@@]2(c4noc(=O)[nH]4)C[C@@H]2C)CC3)cc(C)c1F [Compound 81]
0.038	–	–	–	CCP(=O)(CC)Cc1ccc(-n2ccn(-c3c4c(nn3-c3cc(C)c(F)c(C)c3)CCN(C(=O)c3cc5cc(C6CCOCC6)ccc5n3[C@@]3(c5noc(=O)[nH]5)C[C@@H]3C)[C@H]4C)c2=O)cc1 [Compound 80]
0.028	–	–	–	Cc1cc(-n2nc3c(c2-n2ccn(-c4ccc(CP(C)(C)=O)cc4)c2=O)[C@H](C)N(C(=O)c2cc4cc(C5CCOCC5)ccc4n2[C@@]2(c4noc(=O)[nH]4)C[C@@H]2C)CC3)cc(C)c1F [Compound 50]
0.025	–	–	–	Cc1cc(-n2nc3c(c2-n2ccn(-c4ccc5c(c4F)CCS(=O)(=O)N5C)c2=O)[C@H](C)N(C(=O)c2cc4cc(C5CCOCC5)ccc4n2[C@@]2(c4noc(=O)[nH]4)C[C@@H]2C)CC3)cc(C)c1F [Compound 35]
0.022	–	–	–	Cc1cc(-n2nc3c(c2-n2ccn(-c4ccc5c(c4)oc(=O)n5C)c2=O)[C@H](C)N(C(=O)c2cc4cc(C5CCOCC5)ccc4n2[C@@]2(c4noc(=O)[nH]4)C[C@@H]2C)CC3)cc(C)c1F [Compound 77]
0.019	–	–	–	Cc1cc(-n2nc3c(c2-n2ccn(-c4ccc5c(c4)CS(=O)(=O)N5C)c2=O)[C@H](C)N(C(=O)c2cc4cc(C5CCOCC5)ccc4n2[C@@]2(c4noc(=O)[nH]4)C[C@@H]2C)CC3)cc(C)c1F [Compound 76]
0.018	77700	1900	17000	Cc1cc(-n2nc3c(c2-n2ccn(-c4ccc5c(cnn5C5CCC5)c4F)c2=O)[C@H](C)N(C(=O)c2cc4cc(C5CCOCC5)ccc4n2[C@@]2(c4noc(=O)[nH]4)C[C@@H]2C)CC3)cc(C)c1F [Compound 20]
0.014	–	–	–	Cc1cc(-n2nc3c(c2-n2ccn(-c4ccc5c(cnn5C5CC5)c4F)c2=O)[C@H](C)N(C(=O)c2cc4cc(C5CCOCC5)ncc4n2[C@@]2(c4noc(=O)[nH]4)C[C@@H]2C)CC3)cc(C)c1F [Compound 66]
0.012	–	–	–	Cc1cc(-n2nc3c(c2-n2ccn(-c4ccc5c(c4)CCC(=O)N5C)c2=O)[C@H](C)N(C(=O)c2cc4cc(C5CCOCC5)ccc4n2[C@@]2(c4noc(=O)[nH]4)C[C@@H]2C)CC3)cc(C)c1F [Compound 78]
0.012	234000	4460	60000	Cc1cc(-n2nc3c(c2-n2ccn(-c4ccc5c(cnn5C5CC5)c4F)c2=O)[C@H](C)N(C(=O)c2cc4nc(C5CCOCC5)ccc4n2[C@@]2(c4noc(=O)[nH]4)C[C@@H]2C)CC3)cc(C)c1F (single isomer, unassigned) [Compound 19]
0.011	–	–	–	Cc1cc(-n2nc3c(c2-n2ccn(-c4ccc(CP5(=O)CCCC5)cc4)c2=O)[C@H](C)N(C(=O)c2cc4cc(C5CCOCC5)ccc4n2[C@@]2(c4noc(=O)[nH]4)C[C@@H]2C)CC3)cc(C)c1F [Compound 82]
